Data: patent US20210085711A1 (Japan Tobacco Inc., priority 2017, published 2021)

What was measured:
Type in all cases: in vivo, human
[1] = test system: patients with hypermenorrhea and/or patients with hypermenorrhea-associated gynecologic diseases (iron-deficiency anemia patients); experiment: Phase II clinical trial of JTT-751: total iron-binding capacity (TIBC)
Method: (§1) This test was a three-stage safety and efficacy clinical trial at multi-facilities. The first stage was a pre-observation period (Day −40 to Day −1), the second stage was an administration period (Day 1 to Day 48) (efficacy and safety evaluation period), and the third stage was a post-observation period (Day 49 to Day 63) (efficacy and safety evaluation period). The safety evaluation and efficacy evaluation were performed by multi-facility collaboration, placebo control, random allocation, double-blind trial, and parallel group comparison test.
(§2) (1) Japanese patients who are 20 or more and less than 65 years old at the time of agreement and can visit an outpatient clinic (2) Patients who have an Hb value (measured using HemoCue® Hb 201 DM analyzer in the institute of clinical practice) of 7.0 g/dL or more and less than 11.0 g/dL on both the observation start date and Week 0, and the difference between the two days is 1.0 g/dL or less (3) Patients with a TIBC of 360 μg/dL or more or a serum ferritin value of less than 12 ng/mL on the observation start date
(§3) The administration period of the trial drug is seven weeks which starts from the next day of the Week 0 visit to the day before the Week 7 visit, provided that the trial drug is not taken on the scheduled Week 3 visit.
(§4) (2) Subsidiary evaluation items 1) Erythrocyte-related examination values and amount of change from Week 0 at each observation date 2) Iron-related test values and amount of change from Week 0 at each observation date 3) Achievement rate of target Hb value (female; 12.0 g/dL or more, male; 13.0 g/dL or more) at each observation date 4) Achievement rate of 1.0 g/dL or more and achievement rate of 2.0 g/dL or more in Hb value improvement from Week 0 at each observation date 5) Average daily change of Hb value from Week 0 to each observation date
(§5) The blood hemoglobin value (Hb), the serum iron level, the serum ferritin value, the total iron-binding capacity (TIBC) and the transferrin saturation rate (TSAT), and the mean corpuscular volume (MCV) were each examined at the observation start date, Week 0, Week 3, Week 7, the end of administration and the consultation at nine weeks after Week 0; the hepcidin concentration (Hepcidin 25) and the serum soluble transferrin receptor concentration (sTfR) were each examined on Week 0, Week 3 and Week 7 and at the end of administration; and the C-terminal FGF23 value (cFGF23) and the intact FGF23 value (iFGF23) were each examined on Week 0 and Week 7 and at the end of administration.

[2] = test system: patients with hypermenorrhea and/or patients with hypermenorrhea-associated gynecologic diseases (iron-deficiency anemia patients); experiment: Phase II clinical trial of JTT-751: mean corpuscular volume value (MCV)
Method: as §1, §2, §3, §4, §5

[3] = test system: patients with hypermenorrhea and/or patients with hypermenorrhea-associated gynecologic diseases (iron-deficiency anemia patients); experiment: Phase II clinical trial of JTT-751: intact FGF23 value (iFGF23)
Method: as §1, §2, §3, §5

[4] = 250 mg/day, 9 weeks after Week 0
[5] = 250 mg/day, End of administration
[6] = 500 mg/day, 9 weeks after Week 0
[7] = 500 mg/day, End of administration
[8] = 1000 mg/day, 9 weeks after Week 0
[9] = 1000 mg/day, End of administration
[10] = 1500 mg/day, 9 weeks after Week 0
[11] = 1500 mg/day, End of administration
[12] = 9 weeks after Week 0, JTT-751 250 mg group
[13] = 9 weeks after Week 0, JTT-751 500 mg group
[14] = 9 weeks after Week 0, JTT-751 1000 mg group
[15] = 9 weeks after Week 0, JTT-751 1500 mg group
[16] = Administration start date, JTT-751 250 mg group
[17] = Administration start date, JTT-751 500 mg group
[18] = Administration start date, JTT-751 1000 mg group
[19] = Administration start date, JTT-751 1500 mg group
[20] = End of administration, JTT-751 250 mg group
[21] = End of administration, JTT-751 500 mg group
[22] = End of administration, JTT-751 1000 mg group
[23] = End of administration, JTT-751 1500 mg group
[24] = Week 0 (baseline), JTT-751 250 mg group
[25] = Week 0 (baseline), JTT-751 500 mg group
[26] = Week 0 (baseline), JTT-751 1000 mg group
[27] = Week 0 (baseline), JTT-751 1500 mg group

With Ferric citrate [JTT-751] the “TIBC, profile from the baseline (value at Week 0), Mean” value (from here on “TIBC, profile from the baseline … Mean”) [1, 4] was -42.8 µg/dL, the “TIBC, profile from the baseline (value at Week 0), Median” value (shortened to “TIBC, profile … Median”) [1, 4] was -39.0 µg/dL and the “TIBC, profile from the baseline … Mean” value [1, 5] was -60.1 µg/dL. The “TIBC, profile … Median” value [1, 5] was -62.0 µg/dL, the “TIBC, profile from the baseline … Mean” value ([1]; 250 mg/day, Week 3) was -28.3 µg/dL and the “TIBC, profile … Median” value ([1]; 250 mg/day, Week 3) was -24.0 µg/dL. For the same substance, the “TIBC, profile from the baseline … Mean” value ([1]; 250 mg/day, Week 7) was -60.1 µg/dL, the “TIBC, profile … Median” value ([1]; 250 mg/day, Week 7) was -62.0 µg/dL and the “TIBC, profile from the baseline … Mean” value [1, 6] was -49.6 µg/dL. The “TIBC, profile … Median” value [1, 6] was -49.0 µg/dL, the “TIBC, profile from the baseline … Mean” value [1, 7] was -61.7 µg/dL and the “TIBC, profile … Median” value [1, 7] was -49.5 µg/dL. For the same substance, the “TIBC, profile from the baseline … Mean” value ([1]; 500 mg/day, Week 3) was -30.9 µg/dL, the “TIBC, profile … Median” value ([1]; 500 mg/day, Week 3) was -28.5 µg/dL and the “TIBC, profile from the baseline … Mean” value ([1]; 500 mg/day, Week 7) was -61.7 µg/dL. For the same substance, the “TIBC, profile … Median” value ([1]; 500 mg/day, Week 7) was -49.5 µg/dL, the “TIBC, profile from the baseline … Mean” value [1, 8] was -68.7 µg/dL and the “TIBC, profile … Median” value [1, 8] was -75.0 µg/dL. For the same substance, the “TIBC, profile from the baseline … Mean” value [1, 9] was -80.4 µg/dL, the “TIBC, profile … Median” value [1, 9] was -70.0 µg/dL and the “TIBC, profile from the baseline … Mean” value ([1]; 1000 mg/day, Week 3) was -54.1 µg/dL. For the same substance, the “TIBC, profile … Median” value ([1]; 1000 mg/day, Week 3) was -54.0 µg/dL, the “TIBC, profile from the baseline … Mean” value ([1]; 1000 mg/day, Week 7) was -80.4 µg/dL and the “TIBC, profile … Median” value ([1]; 1000 mg/day, Week 7) was -70.0 µg/dL. For the same substance, the “TIBC, profile from the baseline … Mean” value [1, 10] was -63.0 µg/dL, the “TIBC, profile … Median” value [1, 10] was -68.5 µg/dL and the “TIBC, profile from the baseline … Mean” value [1, 11] was -79.7 µg/dL. For the same substance, the “TIBC, profile … Median” value [1, 11] was -84.0 µg/dL, the “TIBC, profile from the baseline … Mean” value ([1]; 1500 mg/day, Week 3) was -60.7 µg/dL and the “TIBC, profile … Median” value ([1]; 1500 mg/day, Week 3) was -70.0 µg/dL. The “TIBC, profile from the baseline … Mean” value ([1]; 1500 mg/day, Week 7) was -79.7 µg/dL, the “TIBC, profile … Median” value ([1]; 1500 mg/day, Week 7) was -84.0 µg/dL and the “total iron-binding capacity (TIBC), time-dependent change” value ([1]; Week 0, Week 3 and Week 7) was “decreased along with the continuous administration”. The “MCV, Mean” value [2, 12] was 78.9 fL, the “MCV, Median” value [2, 12] was 79.0 fL and the “MCV, Mean” value [2, 13] was 80.8 fL. The “MCV, Median” value [2, 13] was 81.0 fL, the “MCV, Mean” value [2, 14] was 83.9 fL and the “MCV, Median” value [2, 14] was 84.0 fL. The “MCV, Mean” value [2, 15] was 82.4 fL, the “MCV, Median” value [2, 15] was 82.5 fL and the “MCV, Mean” value [2, 16] was 71.5 fL. The “MCV, Median” value [2, 16] was 73.0 fL, the “MCV, Mean” value [2, 17] was 71.9 fL and the “MCV, Median” value [2, 17] was 72.0 fL. For the same substance, the “MCV, Mean” value [2, 18] was 72.5 fL, the “MCV, Median” value [2, 18] was 71.0 fL and the “MCV, Mean” value [2, 19] was 71.0 fL. For the same substance, the “MCV, Median” value [2, 19] was 69.0 fL, the “MCV, Mean” value [2, 20] was 78.4 fL and the “MCV, Median” value [2, 20] was 79.5 fL. For the same substance, the “MCV, Mean” value [2, 21] was 79.8 fL, the “MCV, Median” value [2, 21] was 81.0 fL and the “MCV, Mean” value [2, 22] was 82.5 fL. For the same substance, the “MCV, Median” value [2, 22] was 82.0 fL, the “MCV, Mean” value [2, 23] was 81.4 fL and the “MCV, Median” value [2, 23] was 81.0 fL. The “MCV, Mean” value [2, 24] was 70.8 fL, the “MCV, Median” value [2, 24] was 72.0 fL and the “MCV, Mean” value [2, 25] was 70.9 fL. For the same substance, the “MCV, Median” value [2, 25] was 70.5 fL, the “MCV, Mean” value [2, 26] was 72.4 fL and the “MCV, Median” value [2, 26] was 70.0 fL. For the same substance, the “MCV, Mean” value [2, 27] was 70.6 fL, the “MCV, Median” value [2, 27] was 68.0 fL and the “mean corpuscular volume value (MCV), time-dependent change” value ([2]; Week 0, Week 3 and Week 7) was “increased along with the continuous administration”. The “MCV, Mean” value ([2]; Week 3, JTT-751 250 mg group) was 73.9 fL, the “MCV, Median” value ([2]; Week 3, JTT-751 250 mg group) was 74.0 fL and the “MCV, Mean” value ([2]; Week 3, JTT-751 500 mg group) was 75.3 fL. The “MCV, Median” value ([2]; Week 3, JTT-751 500 mg group) was 75.0 fL, the “MCV, Mean” value ([2]; Week 3, JTT-751 1000 mg group) was 78.3 fL and the “MCV, Median” value ([2]; Week 3, JTT-751 1000 mg group) was 77.0 fL. The “MCV, Mean” value ([2]; Week 3, JTT-751 1500 mg group) was 76.7 fL, the “MCV, Median” value ([2]; Week 3, JTT-751 1500 mg group) was 77.0 fL and the “MCV, Mean” value ([2]; Week 7, JTT-751 250 mg group) was 78.4 fL. The “MCV, Median” value ([2]; Week 7, JTT-751 250 mg group) was 79.5 fL, the “MCV, Mean” value ([2]; Week 7, JTT-751 500 mg group) was 79.8 fL and the “MCV, Median” value ([2]; Week 7, JTT-751 500 mg group) was 81.0 fL. The “MCV, Mean” value ([2]; Week 7, JTT-751 1000 mg group) was 82.5 fL, the “MCV, Median” value ([2]; Week 7, JTT-751 1000 mg group) was 82.0 fL and the “MCV, Mean” value ([2]; Week 7, JTT-751 1500 mg group) was 81.4 fL. The “MCV, Median” value ([2]; Week 7, JTT-751 1500 mg group) was 81.0 fL, the “mean corpuscular volume value (MCV) at the end of administration” value ([2]; end of administration) was “a value around the normal value” and the “intact FGF23 value (iFGF23), time-dependent change” value ([3]; 1000 mg administration group and 1500 mg administration group) was “decreased along with the continuous administration of the JTT-751 tablet and improved”. The “iFGF23, Mean” value [3, 20] was 34.74 pg/mL, the “iFGF23, Median” value [3, 20] was 33.65 pg/mL and the “iFGF23, Mean” value [3, 21] was 41.06 pg/mL. The “iFGF23, Median” value [3, 21] was 38.20 pg/mL, the “iFGF23, Mean” value [3, 22] was 33.62 pg/mL and the “iFGF23, Median” value [3, 22] was 30.40 pg/mL. For the same substance, the “iFGF23, Mean” value [3, 23] was 36.30 pg/mL, the “iFGF23, Median” value [3, 23] was 35.00 pg/mL and the “iFGF23, Mean” value [3, 24] was 36.73 pg/mL. The “iFGF23, Median” value [3, 24] was 33.90 pg/mL, the “iFGF23, Mean” value [3, 25] was 43.53 pg/mL and the “iFGF23, Median” value [3, 25] was 42.05 pg/mL. The “iFGF23, Mean” value [3, 26] was 41.93 pg/mL, the “iFGF23, Median” value [3, 26] was 42.50 pg/mL and the “iFGF23, Mean” value [3, 27] was 46.09 pg/mL. For the same substance, the “iFGF23, Median” value [3, 27] was 44.00 pg/mL, the “iFGF23, Mean” value ([3]; Week 7, JTT-751 250 mg group) was 34.74 pg/mL and the “iFGF23, Median” value ([3]; Week 7, JTT-751 250 mg group) was 33.65 pg/mL. The “iFGF23, Mean” value ([3]; Week 7, JTT-751 500 mg group) was 41.06 pg/mL, the “iFGF23, Median” value ([3]; Week 7, JTT-751 500 mg group) was 38.20 pg/mL and the “iFGF23, Mean” value ([3]; Week 7, JTT-751 1000 mg group) was 33.62 pg/mL. For the same substance, the “iFGF23, Median” value ([3]; Week 7, JTT-751 1000 mg group) was 30.40 pg/mL, the “iFGF23, Mean” value ([3]; Week 7, JTT-751 1500 mg group) was 36.30 pg/mL and the “iFGF23, Median” value ([3]; Week 7, JTT-751 1500 mg group) was 35.00 pg/mL.
